Test results: patent publication US12103952B2, “Methods for expressing proteins in axons” (Cornell University, priority 2010, dated 2024)

Test system: CREB
Test: CREB levels in severed axons by immunofluorescence
Format: cell-based, rat
Details: for NGF-dependent restoration of CREB immunofluorescence: 1 μM cycloheximide or 40 μM anisomycin, concurrent with NGF replacement
Protocol: FIGS. 7A-B are results showing the axonal translation and retrograde transport of endogenous CREB. (A) CREB levels in severed axons of E15 DRGs were assayed by immunofluorescence with a CREB-specific antibody. CREB was depleted on removal of NGF, with near complete loss of fluorescence signals by 3 hours. […] The error bars represent s.e.m. (n=40). (B) CREB is depleted from axon terminals in a microtubule-dependent manner. CREB levels in severed axons were monitored, as in A, after removal and restoration of NGF, in the presence of LLnL or colchicine. Colchicine, but not LLnL, blocked the reduction in CREB levels following removal of NGF. The error bars represent s.e.m. (n=40).
E15 rat or E13 mouse embryonic dorsal root ganglion (DRG) explants were plated on glass-bottom culture dishes (MatTek) or glass coverslips pre-coated with 33 μg/ml poly-D-lysine and 1 μg/ml laminin. CREB^α/Δ−/+ animals used to generate CREB^α/Δ−/− embryos were from Jackson Labs. E15 dissociated DRG neurons were prepared as described by Wu et al., Nature 436, 1020-1024 (2005). DRGs were cultured in B27/Neurobasal medium (Invitrogen) supplemented with 100 ng/ml nerve growth factor (NGF) and […] 5′-fluorodeoxyuridine (5-FdU) for 3 days. siRNA-mediated knockdown in DRG neurons has been described previously by Higuchi et al., Biochemical & Biophysical Research Communications 301, 804-809 (2003) and was performed using siRNAs listed in Table S3. For measurements of CREB levels in isolated axons, axons were severed from cell bodies by removing the explant with a flame-sharpened Pasteur pipette (Wu et al., Nature 436, 1020-1024 (2005)). Modified Boyden chambers were based on the procedure of Twiss (Zheng et al., Journal of Neuroscience 21, 9291-9303 (2001)) and modified to obtain distal axons as described by Wu et al., Nature 436, 1020-1024 (2005). mRNA from harvested axons (Wu et al., Nature 436, 1020-1024 (2005)) was used to prepare a cDNA library using a modified, unbiased single cell protocol as described below. See also Tietjen et al., Neuron 38, 161-175 (2003). Compartmented (Campenot) cultures were prepared as described below. See also Campenot, Proc Natl Acad Sci USA 74, 4516-4519 (1977)).
Images and measurements of signals in axons were taken from the terminal 50 μm of the axon, except where indicated. Analyzed axons were a minimum of 2000 μm for all experiments. DRGs were fixed with 4% PFA in CBS overnight at 4° C., permeabilized with 0.5% Triton X-100/TBS, and blocked in 4% BSA/TBS for 1 hour. DRGs were labeled with antibodies (Table S4) in 2% BSA/0.1% Triton X-100/TBS overnight at 4° C. For image acquisition details, see below.
The axonal localization of CREB was also examined by immunofluorescence. Axons were severed from cultured DRG explants to rule out potential contributions from anterograde transport of cell body-derived CREB. […] Although the majority of CREB protein localized to the nucleus, with substantially lower levels in axons (FIG. 4D), the immunofluorescence signal in axons was specific. Similar immunofluorescence staining was seen using a different CREB-specific antibody that recognized a non-overlapping epitope.
The importin proteins, which bind nuclear-localization sequences (NLS) (Goldfarb et al., Trends in Cell Biology 14, 505-514 (2004)), are present in axons and mediate the retrograde trafficking of axonally-injected fluorescently-labeled NLS peptides (Hanz et al., Neuron 40, 1095-1104 (2003)). Since CREB contains a NLS that mediates its nuclear localization (Waeber & Habener, Mol Endocrinol 5, 1418-1430 (1991)), axonal CREB may be retrogradely transported to the cell body. To determine if endogenously-expressed CREB is retrogradely trafficked, we examined the time course of CREB reduction in axons upon replacement of media with NGF-free media. […]

## COc1ccc(C[C@H]2NC[C@H](O)[C@H]2OC(C)=O)cc1 [anisomycin]
  NGF-dependent restoration of CREB immunofluorescence: prevented the restoration of CREB immunofluorescence

## C[C@@H]1C[C@@H]([C@H](O)CC2CC(=O)NC(=O)C2)C(=O)[C@@H](C)C1 [cycloheximide]
100 ng/ml NGF + 1 μM cycloheximide, 3 hours
  CREB immunoreactivity in severed axons: loss of CREB immunoreactivity
  NGF-dependent restoration of CREB immunofluorescence: prevented the restoration of CREB immunofluorescence

## NGF: nerve growth factor
After NGF removal
  time for axonal CREB levels to decrease to baseline: ≤ 3 h
Following restoration of NGF
  time for CREB levels to return to original levels: 2 h
Within 30 min of NGF restoration
  recovery in CREB levels: ~40%
